Source: publication PMC8205226, “HIV-1 Integrase Inhibitors with Modifications That Affect Their Potencies against Drug Resistant Integrase Mutants” (ACS Infectious Diseases, 2021)
Where two headings read alike, the source gives them in different places.

Assays:
Type in all cases: cell-based
WT HIV-1 = assay: single-round infectivity assay, WT HIV-1 IN vector; conditions: new compounds
Protocol: (§1) Figure 2 Antiviral activities of the new compounds against RAL-resistant mutants. The EC50 values were determined using a vector that carries WT HIV-1 IN and the RAL-resistant mutants in a single round infection assay. […] Error bars represent the standard deviations of independent experiments, n = 4, performed in triplicate. The graph has a maximum value of 550 nM.
(§2) WT and mutant HIV-1 viral vectors were used in single-round infectivity assays to determine the antiviral potencies (EC50 values) of the compounds and the effects of the mutants on the EC50 values as previously described.[30],[54] Single round infectivity measurements were determined as done previously.[38]
(§3) The vector pNLNgoMIVR-ΔENV.LUC has been described previously.[26] To produce the new IN mutants used in this study, the IN open reading frame was removed from pNLNgoMIVR-ΔENV.LUC by digestion with KpnI and SalI, and the resulting fragment was inserted between the KpnI and SalI sites of pBluescript KS+. Using that construct as the wild-type template, we prepared the following HIV-1 IN mutants using the QuikChange II XL site directed mutagenesis kit (Agilent Technologies, Santa Clara, CA) protocol: N117A, N117H, P142A, P142H, P142S, Y143C, Y143H, S230R, R231G, and R231K. The following sense oligonucleotides were used with matching cognate antisense oligonucleotides (not shown) (Integrated DNA Technologies, Coralville, IA) in the mutagenesis: N117A, 5′-[…]-3′; N117H, 5′-[…]-3′; P142A, 5′-[…]-3′; P142H, 5′-[…]-3′; P142S, 5′-[…]-3′; Y143C, 5′- […]-3′; Y143H, 5′-[…]-3′; S230R, 5′- […]-3′; R231G, 5′-[…]-3′; R231K, 5′-[…]-3′.

HIV-1 IN mutant Y143R = assay: single-round infectivity assay, Y143R IN mutant
Protocol: as §1, §2, §3

HIV-1 IN mutant N155H = assay: single-round infectivity assay, N155H IN mutant
Protocol: as §1, §2, §3

[1] = system: HIV-1 IN double mutant G140S/Q148H; assay: single-round infectivity assay, G140S/Q148H IN double mutant
Protocol: as §1, §2, §3

HIV-1 IN mutant N117A = assay: single-round infectivity assay, N117A IN mutant
Protocol: (§4) The EC50 values were determined using a vector that carries the IN mutant in a single round infection assay. […] Error bars represent the standard deviations of independent experiments, n = 4, performed in triplicate.
as §2, §3

HIV-1 IN mutant N117H = assay: single-round infectivity assay, N117H IN mutant
Protocol: as §4, §2, §3

HIV-1 IN mutant G118R = assay: single-round infectivity assay, G118R IN mutant
Protocol: as §4, §2, §3

HIV-1 IN mutant S119R = assay: single-round infectivity assay, S119R IN mutant
Protocol: as §4, §2, §3

HIV-1 IN mutant Y143C = assay: single-round infectivity assay, Y143C IN mutant
Protocol: as §4, with “Figure 4 Mutations in the β5-α3 loop affect the antiviral potencies of the new compounds. The” for “The”
as §2, §3

HIV-1 IN mutant Y143H = assay: single-round infectivity assay, Y143H IN mutant
Protocol: as §4, with “Figure 4 Mutations in the β5-α3 loop affect the antiviral potencies of the new compounds. The” for “The”
as §2, §3

HIV-1 IN mutant P142A = assay: single-round infectivity assay, P142A IN mutant
Protocol: as §4, with “Figure 4 Mutations in the β5-α3 loop affect the antiviral potencies of the new compounds. The” for “The”
as §2, §3

HIV-1 IN mutant P142H = assay: single-round infectivity assay, P142H IN mutant
Protocol: as §4
Single round infectivity measurements were determined as done previously.[38]
as §3

HIV-1 IN mutant P142S = assay: single-round infectivity assay, P142S IN mutant
Protocol: as §4, with “Figure 4 Mutations in the β5-α3 loop affect the antiviral potencies of the new compounds. The” for “The”
as §2, §3

HIV-1 IN mutant S230R = assay: single-round infectivity assay, S230R IN mutant
Protocol: as §4, with “Figure 5 Antiviral potencies of the new compounds against IN with mutations in the […]. The” for “The”
as §2, §3

HIV-1 IN mutant R231G = assay: single-round infectivity assay, R231G IN mutant
Protocol: as §4, with “Figure 5 Antiviral potencies of the new compounds against IN with mutations in the […]. The” for “The”
as §2, §3

HIV-1 IN mutant R231K = assay: single-round infectivity assay, R231K IN mutant
Protocol: as §4, with “Figure 5 Antiviral potencies of the new compounds against IN with mutations in the […]. The” for “The”
as §2, §3

[2] = fold change in EC50, IN mutant versus WT HIV-1

Nc1c(C(=O)NCc2ccc(F)cc2F)c(=O)n(O)c2ncc(CCS(=O)(=O)CCN3CCOCC3)cc12 [6v, 4-Amino-N-(2,4-difluorobenzyl)-1-hydroxy-6-(2-((2-morpholinoethyl)sulfonyl)ethyl)-2-oxo-1,2-dihydro-1,8-naphthyridine-3-carboxamide]
EC50 (WT HIV-1; Human immunodeficiency virus 1, read-out: EC50 values WT, vector carrying WT HIV-1 IN, single round infection, n = 4): 268 ± 68.8 nM | EC50 (WT HIV-1; read-out: EC50 values WT, vector carrying WT HIV-1 IN, single round infection, n = 4): > 250 nM | ratio of the EC50s (our compound relative to DTG) against Y143R (HIV-1 IN mutant Y143R; EC50 compound / EC50 DTG): 25.3 | EC50 (HIV-1 IN mutant Y143R; Human immunodeficiency virus 1, read-out: EC50 values Y143R): 109 ± 16.2 nM | FC Y143R (HIV-1 IN mutant Y143R; [2]): 0.4 | ratio of the EC50s (our compound relative to DTG) against N155H (HIV-1 IN mutant N155H; EC50 compound / EC50 DTG): 38.8 | EC50 (HIV-1 IN mutant N155H; Human immunodeficiency virus 1, read-out: EC50 values N155H): 140 ± 4.9 nM | FC N155H (HIV-1 IN mutant N155H; [2]): 0.5 | ratio of the EC50s (our compound relative to DTG) against G140S/Q148H ([1]; EC50 compound / EC50 DTG): 71.1 | EC50 ([1]; Human immunodeficiency virus 1, read-out: EC50 values G140S/Q148H): 412 ± 120 nM | FC G140S/Q148H [1, 2]: 1.5 | ratio of the EC50s (our compound relative to DTG) against N117A (HIV-1 IN mutant N117A; EC50 compound / EC50 DTG): 319.0 | EC50 (HIV-1 IN mutant N117A; Human immunodeficiency virus 1, read-out: EC50 values N117A): 160 nM | FC N117A (HIV-1 IN mutant N117A; [2]): 0.6 | ratio of the EC50s (our compound relative to DTG) against N117H (HIV-1 IN mutant N117H; EC50 compound / EC50 DTG): 207.3 | EC50 (HIV-1 IN mutant N117H; Human immunodeficiency virus 1, read-out: EC50 values N117H): 497 nM | FC N117H (HIV-1 IN mutant N117H; [2]): 1.9 | ratio of the EC50s (our compound relative to DTG) against G118R (HIV-1 IN mutant G118R; EC50 compound / EC50 DTG): 88.3 | EC50 (HIV-1 IN mutant G118R; Human immunodeficiency virus 1, read-out: EC50 values G118R): 1150 ± 270 nM | FC G118R (HIV-1 IN mutant G118R; [2]): 4.3 | ratio of the EC50s (our compound relative to DTG) against S119R (HIV-1 IN mutant S119R; EC50 compound / EC50 DTG): 213.0 | EC50 (HIV-1 IN mutant S119R; Human immunodeficiency virus 1, read-out: EC50 values S119R): 490 ± 43.1 nM | FC S119R (HIV-1 IN mutant S119R; [2]): 1.8 | ratio of the EC50s (our compound relative to DTG) against Y143C (HIV-1 IN mutant Y143C; EC50 compound / EC50 DTG): 308.4 | EC50 (HIV-1 IN mutant Y143C; Human immunodeficiency virus 1, read-out: EC50 values Y143C, single round infection, n = 4): 432 ± 75.3 nM | FC Y143C (HIV-1 IN mutant Y143C; [2]): 1.6 | ratio of the EC50s (our compound relative to DTG) against Y143H (HIV-1 IN mutant Y143H; EC50 compound / EC50 DTG): 172.0 | EC50 (HIV-1 IN mutant Y143H; Human immunodeficiency virus 1, read-out: EC50 values Y143H, single round infection, n = 4): 378 ± 38.9 nM | FC Y143H (HIV-1 IN mutant Y143H; [2]): 1.4 | ratio of the EC50s (our compound relative to DTG) against P142A (HIV-1 IN mutant P142A; EC50 compound / EC50 DTG): 145.9 | EC50 (HIV-1 IN mutant P142A; Human immunodeficiency virus 1, read-out: EC50 values P142A): 365 ± 39.4 nM | ratio of the EC50s (our compound relative to DTG) against P142H (HIV-1 IN mutant P142H; EC50 compound / EC50 DTG): 159.9 | EC50 (HIV-1 IN mutant P142H; Human immunodeficiency virus 1, read-out: EC50 values P142H): 448 ± 35.8 nM | ratio of the EC50s (our compound relative to DTG) against P142S (HIV-1 IN mutant P142S; EC50 compound / EC50 DTG): 156.4 | EC50 (HIV-1 IN mutant P142S; Human immunodeficiency virus 1, read-out: EC50 values P142S): 344 ± 26.9 nM | ratio of the EC50s (our compound relative to DTG) against S230R (HIV-1 IN mutant S230R; EC50 compound / EC50 DTG): 134.0 | EC50 (HIV-1 IN mutant S230R; Human immunodeficiency virus 1, read-out: EC50 values S230R): 616 ± 79.8 nM | FC S230R (HIV-1 IN mutant S230R; [2]): 2.3 | ratio of the EC50s (our compound relative to DTG) against R231G (HIV-1 IN mutant R231G; EC50 compound / EC50 DTG): 133.8 | EC50 (HIV-1 IN mutant R231G; Human immunodeficiency virus 1, read-out: EC50 values R231G): 187 ± 17 nM | FC R231G (HIV-1 IN mutant R231G; [2]): 0.7 | ratio of the EC50s (our compound relative to DTG) against R231K (HIV-1 IN mutant R231K; EC50 compound / EC50 DTG): 97.9 | EC50 (HIV-1 IN mutant R231K; Human immunodeficiency virus 1, read-out: EC50 values R231K, single round infection, n = 4): 411 ± 58 nM | FC R231K (HIV-1 IN mutant R231K; [2]): 1.5
